Measurements reported in patent US7112607B2, “Allosteric adenosine receptor modulators” (King Pharmaceuticals Research & Development, Inc., priority 1997, dated 2006).

Biological target: T1, human recombinant A1 adenosine receptors (Homo sapiens, UniProt P30542)
T1 construct: expressed in transfected cells; host or cells: Chinese hamster ovary (CHO) cells, CHO:huA1, G-418 selected
T1 sequence (P30542 1-326): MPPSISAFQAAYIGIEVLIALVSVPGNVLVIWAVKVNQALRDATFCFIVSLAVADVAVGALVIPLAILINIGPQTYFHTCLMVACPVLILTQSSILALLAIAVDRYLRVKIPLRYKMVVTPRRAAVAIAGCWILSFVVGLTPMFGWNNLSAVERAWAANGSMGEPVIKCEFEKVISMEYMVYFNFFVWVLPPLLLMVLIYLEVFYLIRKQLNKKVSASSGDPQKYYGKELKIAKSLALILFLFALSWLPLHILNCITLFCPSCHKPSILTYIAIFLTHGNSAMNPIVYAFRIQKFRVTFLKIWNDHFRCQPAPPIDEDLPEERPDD
Assay: Allosteric enhancement: reduction of cAMP content of CHO:huA1 cells (radioimmunoassay)
Assay type: cell-based
Conditions: forskolin 1 μM, rolipram 20 μM, CPA 0.01 nM, adenosine deaminase, 6 min at 36° C.; for inhibition at 0.01 µM / inhibition at 0.1 µM / inhibition at 1 µM / inhibition at 10 µM: 0.1 h, read-out: Change in cAMP Content from Control (mean + SEM)
Method: Chinese hamster ovary cells expressing human recombinant A1 adenosine receptors (CHO:huA1 cells) at a density of approximately 8000 fmol/mg protein were prepared as previously described (Kollias-Baker et al., (1997), J. Pharmacol. Exp. Ther. 281: 761–768) and aliquots of the cells at low passage numbers were frozen and stored in liquid nitrogen. When compounds were tested, an aliquot of CHO:huA1 cells were rapidly thawed after removal from liquid nitrogen, then grown in Ham's F12 culture medium with 10% fetal bovine serum and 0.5 mg/mL of antibiotic G-418 (Shryock, Ozeck, and Belardinelli (1998), Mol. Pharmacol 53: 886–893). Cells were passaged thrice weekly. Aliquots of cells were placed into 12-well plates with culture medium, serum, and antibiotic for 48 hours, by which time the cells had grown to a confluent monolayer.
Allosteric enhancement was measured as the action of a test compound at different concentrations (0.01, 0.1, 1 and 10 μM) to reduce the cAMP content of CHO:huA1 cells. To initiate an experiment, growth medium was removed from the 12-well plates and cells were washed once with warm Hanks' buffered saline. The wash solution was then removed and replaced with fresh Hanks' solution containing forskolin (1 μM), rolipram (20 μM), N^6-cyclopentyladenosine (CPA, 0.01 nM), adenosine deaminase (2 U/mL), and the test compound. Forskolin was used to stimulate the activity of adenylyl cyclase, rolipram to inhibit cAMP phosphodiesterase, adenosine deaminase to degrade endogenous adenosine, and CPA to cause a small increase of the number of activated adenosine receptors. After 6 min of incubation at 36° C. in the presence of test compound, the incubation solution was removed and hydrochloric acid (final concentration 50 mM) was added to terminate drug action.
The content of cAMP in acidified extracts of cells was determined by radioimmunoassay as previously described (Kollias-Baker et al., (1997), J. Pharmacol. Exp. Ther. 281: 761–768). Because the magnitude of the effects of allosteric enhancers on CHO:huA1 cells changed subtly with passage number and differed slightly among different aliquots of cells, the actions of the test compounds and the action of a reference compound (PD 81,723) were assessed in each experiment. The effect of each test compound on cAMP content is presented in Table 1 as a percentage of the value of cAMP content in the absence of drug (control, 100%). Each value is a mean±standard error of 6 determinations in each of the number of experiments indicated in the “n” column of the table.

With Nc1sc2c(c1C(=O)c1ccccc1)CCSC2 [Example 1, (2-Amino-4,7-dihydro-5H-thieno[2,3-c]thiopyran-3-yl)-phenyl-methanone] the inhibition at 0.01 µM (0.01 μM test compound) was -9 ± 4%, the inhibition at 0.1 µM (0.1 μM test compound) was 6 ± 3% and the inhibition at 1 µM (1 μM test compound) was 15 ± 2%. The inhibition at 10 µM (10 μM test compound) was 35 ± 2%.

In the case of Nc1sc2c(c1C(=O)c1ccc(Cl)cc1)CCSC2 [Example 2, (2-Amino-4,7-dihydro-5H-thieno[2,3-c]thiopyran-3-yl)-(4-chlorophenyl)-methanone], the inhibition at 0.01 µM (0.01 μM test compound) is reported as -15 ± 3%, the inhibition at 0.1 µM (0.1 μM test compound) is reported as 10 ± 4% and the inhibition at 1 µM (1 μM test compound) is reported as -16 ± 5%. The inhibition at 10 µM (10 μM test compound) was 0.3 ± 5%.

Work on Nc1sc2c(c1C(=O)c1ccc(Cl)cc1)CCS2 [Example 3, (2-Amino-4,5-dihydrothieno[2,3-b]thiophen-3-yl)-(4-chlorophenyl)-methanone] yielded an inhibition at 0.01 µM (0.01 μM test compound) of 1 ± 4%, an inhibition at 0.1 µM (0.1 μM test compound) of -11 ± 4% and an inhibition at 1 µM (1 μM test compound) of -1 ± 3%. The inhibition at 10 µM (10 μM test compound) was 35 ± 4%.

With Nc1sc2c(c1C(=O)c1ccco1)CCCC2 [Example 4, (2-Amino-4,5,6,7-tetrahydrobenzo[b]thiophen-3-yl)-furan-2-yl-methanone] the inhibition at 0.01 µM (0.01 μM test compound) was 10 ± 2%, the inhibition at 0.1 µM (0.1 μM test compound) was -2 ± 6% and the inhibition at 1 µM (1 μM test compound) was 3 ± 6%. For the same compound, the inhibition at 10 µM (10 μM test compound) was 10 ± 7%.

With Nc1sc2c(c1C(=O)c1cccs1)CCCC2 [Example 5] the “Change in cAMP Content from Control (mean + SEM)” value (“Change … (mean + SEM)” for short) (0.01 μM test compound) was −11 ± 3%, the “Change … (mean + SEM)” value (0.1 μM test compound) was −11 ± 5% and the “Change … (mean + SEM)” value (1 μM test compound) was −16 ± 3%. For the same compound, the “Change … (mean + SEM)” value (10 μM test compound) was −40 ± 2%.

Nc1sc2c(c1C(=O)c1cccc3ccccc13)CCCC2 [Example 6, (2-Amino-4,5,6,7-tetrahydrobenzo[b]thiophen-3-yl)-naphthalen-1-yl-methanone] was tested, and the inhibition at 0.01 µM (0.01 μM test compound) was 11 ± 4%, the inhibition at 0.1 µM (0.1 μM test compound) was 15 ± 4% and the inhibition at 1 µM (1 μM test compound) was 22 ± 3%. It also gave an inhibition at 10 µM (10 μM test compound) of 52 ± 3%.

Compound Nc1sc2c(c1C(=O)c1cccc3ccccc13)CCC2 [Example 7, (2-Amino-5,6-dihydro-4H-cyclopenta[b]thiophen-3-yl)-naphthalen-1-yl-methanone] has an inhibition at 0.01 µM (0.01 μM test compound) of 0.6 ± 3%, an inhibition at 0.1 µM (0.1 μM test compound) of 6 ± 1% and an inhibition at 1 µM (1 μM test compound) of 29 ± 4%. It also gave an inhibition at 10 µM (10 μM test compound) of 60 ± 1%.

Compound Cc1sc(N)c(C(=O)c2cccc3ccccc23)c1C [Example 8, (2-Amino-4,5-dimethylthiophen-3-yl)-naphthalen-1-yl-methanone] has an inhibition at 0.01 µM (0.01 μM test compound) of 0.6 ± 2%, an inhibition at 0.1 µM (0.1 μM test compound) of 3 ± 3% and an inhibition at 1 µM (1 μM test compound) of -6 ± 5%. It also gave an inhibition at 10 µM (10 μM test compound) of 45 ± 2%.

Nc1sc2c(c1C(=O)c1cccc3ccccc13)CCN(Cc1ccccc1)C2 [Example 9, (2-Amino-6-benzyl-4,5,6,7-tetrahydrothieno[2,3-c]pyridin-3-yl)-naphthalen-1-yl-methanone] gave an inhibition at 0.01 µM (0.01 μM test compound) of 21 ± 3%, an inhibition at 0.1 µM (0.1 μM test compound) of 7 ± 4% and an inhibition at 1 µM (1 μM test compound) of 25 ± 4%. For the same compound, the inhibition at 10 µM (10 μM test compound) was -19 ± 2%.

In the case of CC(=O)Nc1sc2c(c1C(=O)c1ccco1)CCCC2 [Example 10, N-[3-(Furan-2-carbonyl)-4,5,6,7-tetrahydrobenzo[b]thiophen-2-yl]-acetamide], the inhibition at 0.01 µM (0.01 μM test compound) is reported as 8 ± 5%, the inhibition at 0.1 µM (0.1 μM test compound) is reported as 14 ± 4% and the inhibition at 1 µM (1 μM test compound) is reported as 25 ± 5%. It also gave an inhibition at 10 µM (10 μM test compound) of -8 ± 5%.

With Nc1sc2c(c1C(=O)c1ccco1)CCC2 [Example 11, (2-Amino-5,6-dihydro-4H-cyclopenta[b]thiophen-3-yl)-furan-2-yl-methanone] the inhibition at 0.01 µM (0.01 μM test compound) was -3 ± 4%, the inhibition at 0.1 µM (0.1 μM test compound) was 14 ± 4% and the inhibition at 1 µM (1 μM test compound) was 0.8 ± 3%. It also gave an inhibition at 10 µM (10 μM test compound) of 23 ± 2%.

Nc1sc2c(c1C(=O)c1ccco1)CCN(Cc1ccccc1)C2 [Example 12, (2-Amino-6-benzyl-4,5,6,7-tetrahydrothieno[2,3-c]pyridin-3-yl)-furan-2-yl-methanone] showed an inhibition at 0.01 µM (0.01 μM test compound) of 27 ± 4%, an inhibition at 0.1 µM (0.1 μM test compound) of 0.6 ± 4% and an inhibition at 1 µM (1 μM test compound) of 15 ± 3%. For the same compound, the inhibition at 10 µM (10 μM test compound) was 8 ± 11%.

Cc1sc(N)c(C(=O)c2ccco2)c1C [Example 13, (2-Amino-4,5-dimethylthiophen-3-yl)-furan-2-yl-methanone] showed an inhibition at 0.01 µM (0.01 μM test compound) of 4 ± 5%, an inhibition at 0.1 µM (0.1 μM test compound) of -11 ± 5% and an inhibition at 1 µM (1 μM test compound) of 7 ± 5%. The inhibition at 10 µM (10 μM test compound) was -5 ± 10%.

Nc1sc2c(c1C(=O)c1cc3ccccc3o1)CCCC2 [Example 14, (2-Amino-4,5,6,7-tetrahydrobenzo[b]thiophen-3-yl)-benzofuran-2-yl-methanone] was tested, and the inhibition at 0.01 µM (0.01 μM test compound) was 13 ± 5%, the inhibition at 0.1 µM (0.1 μM test compound) was 3 ± 4% and the inhibition at 1 µM (1 μM test compound) was 4 ± 3%. The inhibition at 10 µM (10 μM test compound) was 5 ± 4%.

Nc1sc2c(c1C(=O)c1cc3ccccc3o1)CCC2 [Example 15, (2-Amino-5,6-dihydro-4H-cyclopenta[b]thiophen-3-yl)-benzofuran-2-yl-methanone] was tested, and the inhibition at 0.01 µM (0.01 μM test compound) was 5 ± 3%, the inhibition at 0.1 µM (0.1 μM test compound) was 13 ± 3% and the inhibition at 1 µM (1 μM test compound) was -3 ± 5%. The inhibition at 10 µM (10 μM test compound) was 4 ± 6%.

Compound Nc1sc2c(c1C(=O)c1cc3ccccc3o1)CCN(Cc1ccccc1)C2 [Example 16, (2-Amino-6-benzyl-4,5,6,7-tetrahydrothieno[2,3-c]pyridin-3-yl)-benzofuran-2-yl-methanone] has an inhibition at 0.01 µM (0.01 μM test compound) of -4 ± 3%, an inhibition at 0.1 µM (0.1 μM test compound) of -14 ± 4% and an inhibition at 1 µM (1 μM test compound) of 10 ± 2%. It also gave an inhibition at 10 µM (10 μM test compound) of -11 ± 4%.

With Nc1sc2c(c1C(=O)c1ccccn1)CCC2 [Example 17] the “Change … (mean + SEM)” value (0.01 μM test compound) was −3 ± 4%, the “Change … (mean + SEM)” value (0.1 μM test compound) was 0.8 ± 7% and the “Change … (mean + SEM)” value (1 μM test compound) was −1 ± 6%. The “Change … (mean + SEM)” value (10 μM test compound) was 2 ± 7%.

Cc1sc(N)c(C(=O)c2cc3ccccc3o2)c1C [Example 18, (2-Amino-4,5-dimethylthiophen-3-yl)-benzofuran-2-yl-methanone] showed an inhibition at 0.01 µM (0.01 μM test compound) of -6 ± 5%, an inhibition at 0.1 µM (0.1 μM test compound) of 7 ± 4% and an inhibition at 1 µM (1 μM test compound) of -16 ± 5%. For the same compound, the inhibition at 10 µM (10 μM test compound) was -7 ± 6%.

Work on Nc1sc2c(c1C(=O)c1ccccn1)CCCC2 [Example 19, (2-Amino-4,5,6,7-tetrahydrobenzo[b]thiophen-3-yl)-pyridin-2-yl-methanone] yielded an inhibition at 0.01 µM (0.01 μM test compound) of 2 ± 4%, an inhibition at 0.1 µM (0.1 μM test compound) of 8 ± 5% and an inhibition at 1 µM (1 μM test compound) of 11 ± 5%. The inhibition at 10 µM (10 μM test compound) was -8 ± 3%.

Compound Nc1sc2c(c1C(=O)c1ccccn1)CCN(Cc1ccccc1)C2 [Example 20, (2-Amino-6-benzyl-4,5,6,7-tetrahydrothieno[2,3-c]pyridin-3-yl)-pyridin-2-yl-methanone] has an inhibition at 0.01 µM (0.01 μM test compound) of -2 ± 4%, an inhibition at 0.1 µM (0.1 μM test compound) of -7 ± 5% and an inhibition at 1 µM (1 μM test compound) of -0.1 ± 5%. The inhibition at 10 µM (10 μM test compound) was -31 ± 3%.

Cc1sc(N)c(C(=O)c2ccccn2)c1C [Example 21, (2-Amino-4,5-dimethylthiophen-3-yl)-pyridin-2-yl-methanone] gave an inhibition at 0.01 µM (0.01 μM test compound) of -0.7 ± 3%, an inhibition at 0.1 µM (0.1 μM test compound) of 8 ± 3% and an inhibition at 1 µM (1 μM test compound) of -4 ± 4%. It also gave an inhibition at 10 µM (10 μM test compound) of -14 ± 4%.

Nc1sc2c(c1C(=O)c1ccc(Br)c3ccccc13)CCC2 [Example 22, (2-Amino-5,6-dihydro-4H-cyclopenta[b]thiophen-3-yl)-(4-bromonaphthalen-1-yl)-methanone] gave an inhibition at 0.01 µM (0.01 μM test compound) of -3 ± 3%, an inhibition at 0.1 µM (0.1 μM test compound) of -19 ± 5% and an inhibition at 1 µM (1 μM test compound) of 14 ± 5%. The inhibition at 10 µM (10 μM test compound) was 67 ± 3%.

For COc1ccc(C(=O)c2c(N)sc3c2CCC3)c2ccccc12 [Example 23], the “Change … (mean + SEM)” value (0.01 μM test compound) was −6 ± 3%, the “Change … (mean + SEM)” value (0.1 μM test compound) was −3 ± 4% and the “Change … (mean + SEM)” value (1 μM test compound) was −8 ± 4%. The “Change … (mean + SEM)” value (10 μM test compound) was −35 ± 3%.
